From US12090221B2, “Composition for preventing gray hair, promoting black hair and preventing, improving or treating vitiligo or hypochromatism comprising fructose 1,6-bisphosphate or salt, solvate, stereoisomer or hydrate thereof as active ingredient” (AMOREPACIFIC CORPORATION, priority 2021, dated 2024)

Legend:
[1] = test system: human hair follicles; assay: Effect of preventing gray hair and promoting black hair in cultured human hair follicles damaged with hydrogen peroxide (Fontana-Masson staining of melanin); assay type: cell-based; settings: 100 ppm together with 1000 μM hydrogen peroxide, cultured for 3 days, FIG. 3
Procedure: Occipital scalp tissue was obtained from a person who received hair follicle transplantation surgery due to hair loss. Hair follicle samples were isolated from the obtained occipital scalp tissue using a microscope. A total of 15 hair follicle samples were prepared for 3 groups, with 5 samples per each group. The hair follicle samples were cultured on a 24-well plate (Nunc, Wiesbaden, Germany) containing 500 μL of a culture medium, with 5 samples per well. As the culture medium, William's E medium (GIBCO, NY, USA) containing 2 mM L-glutamine (PAA, Coelbe, Germany), 10 μg/mL insulin, 10 ng/mL hydrocortisone (Sigma, St Louis, Mo.), 0.1% Fungizone (GIBCO, NY, USA), 10 μg/mL streptomycin and 100 U/mL penicillin (GIBCO, NY, USA) was used. After simultaneously treating with hydrogen peroxide and a fructose 1,6-bisphosphate trisodium salt (FBP-Na3H) at 1000 μM and 100 ppm, respectively, the samples were cultured for 3 days. For comparison, control groups were treated with 1000 μM hydrogen peroxide (H2O2) only or with neither hydrogen peroxide nor the fructose 1,6-bisphosphate trisodium salt. After the treatment, the sample was fixed with formalin, washed with water, dehydrated with alcohol and xylene, and then embedded in paraffin according to a common tissue-processing procedure. […]

[2] = test system: Normal human epidermal melanocytes; assay: Melanin synthesis-promoting effect in normal human melanocytes (absorbance at 475 nm of NaOH lysate); assay type: cell-based; settings: cultured for 6 days, relative to untreated group as 100%
Procedure: Normal human epidermal melanocytes (GIBCO™, ThermoFisher Scientific, USA) were treated with fructose 1,6-bisphosphate at 0 (untreated group), 0.1, 1, 10 or 100 ppm and then cultured for 6 days. After the culturing, the cells were lysed with 1 N NaOH and absorbance was measured at 475 nm. Relative melanin production was represented with respective to the absorbance of the untreated group not treated with fructose 1,6-bisphosphate as 100%. A higher absorbance means a higher melanin content.

Compound | Melanin production in human hair follicles (Fontana-Masson staining) [1] | Prevention of decreased melanin production in hair bulbs due to hydrogen peroxide damage (Fontana-Masson staining) ([1]; compared with H2O2 only) | Relative melanin production (effect of promoting melanin production in melanocytes) ([2]; 0.1, 1, 10 or 100 ppm, FIG. 1 and FIG. 2) | Relative melanin production (effect of promoting melanin production in melanocytes) ([2]; 100 ppm treatment group)
O=C(COP(=O)([O-])[O-])[C@@H](O)[C@H](O)[C@H](O)COP(=O)([O-])O.[Na+].[Na+].[Na+] [fructose 1,6-bisphosphate trisodium salt] | promoting melanin production in human hair follicles | preventing decreased melanin production in hair bulbs due to damage caused by hydrogen peroxide | – | –
O=C(COP(=O)(O)O)[C@@H](O)[C@H](O)[C@H](O)COP(=O)(O)O [fructose 1,6-bisphosphate] | – | – | exhibits the effect of promoting melanin production in melanocytes | significantly high
